Measurements reported in patent US12540128B2, “Substituted pyridazinones as herbicides” (SYNGENTA CROP PROTECTION AG, priority 2019, dated 2026).

Columns and labels:
Format in all cases: in vivo
Conditions in all cases: 250 g/ha, after 13 days
Setaria faberi (SETFA) [1] = test: B4 Pre-Emergence Efficacy Test 2
Method: (§1) Seeds of a variety of test species were sown in standard soil in pots: Amaranthus retoflexus (AMARE), Setaria faberi (SETFA), Echinochloa crus-galli (ECHCG), Ipomoea hederacea (IPOHE), Zea Mays (ZEAMX), Abutilon theophrasti (ABUTH). After cultivation for one day (pre-emergence) under controlled conditions in a glasshouse (at 24/16° C., day/night; 14 hours light; 65% humidity), the plants were sprayed with an aqueous spray solution derived from the formulation of the technical active ingredient in acetone/water (50:50) solution containing 0.5% Tween 20 (polyoxyethelyene sorbitan monolaurate, CAS RN 9005-64-5). Compounds are applied at 250 g/ha. The test plants were then grown in a glasshouse under controlled conditions (at 24/16° C., day/night; 14 hours light; 65% humidity) and watered twice daily. After 13 days, the test is evaluated for the percentage damage caused to the plant. The biological activities are assessed on a five point scale (5=80-100%; 4=60-79%; 3=40-59%; 2=20-39%; 1=0-19%). A blank value in the table is indicative that the compound was not tested on that species.

[2] = system: Abutilon theophrasti (ABUTH); test: B4 Pre-Emergence Efficacy Test 2
Method: as §1

[3] = system: Amaranthus retoflexus (AMARE); test: B4 Pre-Emergence Efficacy Test 2
Method: as §1

[4] = system: Echinochloa crus-galli (ECHCG); test: B4 Pre-Emergence Efficacy Test 2
Method: as §1

Zea Mays (ZEAMX) [5] = test: B4 Pre-Emergence Efficacy Test 2
Method: as §1

[6] = system: Ipomoea hederacea (IPOHE); test: B4 Pre-Emergence Efficacy Test 2
Method: as §1

Setaria faberi (SETFA) [7] = test: B2 Post-Emergence Efficacy Test 2
Method: (§2) Seeds of a variety of test species are sown in standard soil in pots:— Amaranthus retoflexus (AMARE), Setaria faberi (SETFA), Echinochloa crus-galli (ECHCG), Ipomoea hederacea (IPOHE), Zea Mays (ZEAMX), Abutilon theophrasti (ABUTH). After 8 days cultivation (post-emergence) under controlled conditions in a glasshouse (at 24/16° C., day/night; 14 hours light; 65% humidity), the plants are sprayed with an aqueous spray solution derived from the formulation of the technical active ingredient in acetone/water (50:50) solution containing 0.5% Tween 20 (polyoxyethylene sorbitan monolaurate, CAS RN 9005-64-5). Compounds are applied at 250 g/ha. The test plants are then grown in a glasshouse under controlled conditions in a glasshouse (at 24/16° C., day/night; 14 hours light; 65% humidity) and watered twice daily. After 13 days, the test is evaluated for the percentage damage caused to the plant. The biological activities are assessed on a five point scale (5=80-100%; 4=60-79%; 3=40-59%; 2=20-39%; 1=0-19%). A blank value in the table is indicative that the compound was not tested on that species.

[8] = system: Abutilon theophrasti (ABUTH); test: B2 Post-Emergence Efficacy Test 2
Method: as §2

[9] = system: Amaranthus retoflexus (AMARE); test: B2 Post-Emergence Efficacy Test 2
Method: as §2

[10] = system: Echinochloa crus-galli (ECHCG); test: B2 Post-Emergence Efficacy Test 2
Method: as §2

Zea Mays (ZEAMX) [11] = test: B2 Post-Emergence Efficacy Test 2
Method: as §2

[12] = system: Ipomoea hederacea (IPOHE); test: B2 Post-Emergence Efficacy Test 2
Method: as §2

| Structure (SMILES) | percentage damage caused to the plant, five point scale, SETFA (Setaria faberi (SETFA) [1]) | percentage damage caused to the plant, five point scale, ABUTH [2] | percentage damage caused to the plant, five point scale, AMARE [3] | percentage damage caused to the plant, five point scale, ECHCG [4] | percentage damage caused to the plant, five point scale, ZEAMX (Zea Mays (ZEAMX) [5]) | percentage damage caused to the plant, five point scale, IPOHE [6] | percentage damage caused to the plant, five point scale, SETFA (Setaria faberi (SETFA) [7]) | percentage damage caused to the plant, five point scale, ABUTH [8] | percentage damage caused to the plant, five point scale, AMARE [9] | percentage damage caused to the plant, five point scale, ECHCG [10] | percentage damage caused to the plant, five point scale, ZEAMX (Zea Mays (ZEAMX) [11]) | percentage damage caused to the plant, five point scale, IPOHE [12] |
| --- | --- | --- | --- | --- | --- | --- | --- | --- | --- | --- | --- | --- |
| Cc1nc2ccc(CCc3c(Cl)ccc(F)c3-c3c(O)c(C)nn(C)c3=O)cc2o1 [Compound 1.341] | 5 (5=80-100%) | 5 (5=80-100%) | 5 (5=80-100%) | 5 (5=80-100%) | 4 (4=60-79%) | 5 (5=80-100%) | 4 (4=60-79%) | 5 (5=80-100%) | 5 (5=80-100%) | 5 (5=80-100%) | 4 (4=60-79%) | 5 (5=80-100%) |
| Cc1nn(C)c(=O)c(-c2c(F)ccc(Cl)c2/C=C/c2cn3ccnc3cn2)c1O [Compound 2.363] | 4 (4=60-79%) | 5 (5=80-100%) | 5 (5=80-100%) | 5 (5=80-100%) | 2 (2=20-39%) | 5 (5=80-100%) | 0 | 0 | 1 (1=0-19%) | 0 | 0 | 2 (2=20-39%) |
| Cc1nn(C)c(=O)c(-c2c(F)ccc(Cl)c2CCc2ccc3c(c2)OC(C)(C)C3)c1O [Compound 1.340] | 5 (5=80-100%) | 5 (5=80-100%) | 5 (5=80-100%) | 5 (5=80-100%) | 3 (3=40-59%) | 5 (5=80-100%) | 5 (5=80-100%) | 5 (5=80-100%) | 5 (5=80-100%) | 5 (5=80-100%) | 5 (5=80-100%) | 4 (4=60-79%) |
| Cc1nn(C)c(=O)c(-c2c(F)ccc(Cl)c2CCc2ccc3occc3c2)c1O [Compound 1.346] | 0 | 4 (4=60-79%) | 3 (3=40-59%) | 0 | 1 (1=0-19%) | 3 (3=40-59%) | 0 | 4 (4=60-79%) | 2 (2=20-39%) | 4 (4=60-79%) | 2 (2=20-39%) | 3 (3=40-59%) |
| Cc1nn(C)c(=O)c(-c2c(F)ccc(Cl)c2CCc2ccc3ccn(C)c3c2)c1O [Compound 1.355] | 1 (1=0-19%) | 0 | 3 (3=40-59%) | 0 | 1 (1=0-19%) | 2 (2=20-39%) | 2 (2=20-39%) | 3 (3=40-59%) | 4 (4=60-79%) | 1 (1=0-19%) | 1 (1=0-19%) | 4 (4=60-79%) |
| Cc1nn(C)c(=O)c(-c2c(F)ccc(Cl)c2CCc2cccc3ccccc23)c1O [Compound 1.044] | 0 | 3 (3=40-59%) | 2 (2=20-39%) | 0 | 1 (1=0-19%) | 3 (3=40-59%) | 0 | 3 (3=40-59%) | 3 (3=40-59%) | 0 | 1 (1=0-19%) | 4 (4=60-79%) |
| Cc1nn(C)c(=O)c(-c2c(F)ccc(Cl)c2CCc2cnc3c(ccn3C)c2)c1O [Compound 1.345] | 5 (5=80-100%) | 4 (4=60-79%) | 5 (5=80-100%) | 2 (2=20-39%) | 1 (1=0-19%) | 5 (5=80-100%) | 4 (4=60-79%) | 4 (4=60-79%) | 4 (4=60-79%) | 3 (3=40-59%) | 2 (2=20-39%) | 4 (4=60-79%) |
| Cc1nn(C)c(=O)c(-c2c(F)ccc(Cl)c2CCc2nn(C)c3ccccc23)c1O [Compound 1.344] | 2 (2=20-39%) | 4 (4=60-79%) | 3 (3=40-59%) | 2 (2=20-39%) | 0 | 3 (3=40-59%) |  | 4 (4=60-79%) | 3 (3=40-59%) | 2 (2=20-39%) | 1 (1=0-19%) | 3 (3=40-59%) |
| Cc1nn(C)c(=O)c(-c2c(F)ccc(Cl)c2CCc2ccc3c(c2)OC(F)(F)O3)c1O [Compound 1.342] | 5 (5=80-100%) | 4 (4=60-79%) | 5 (5=80-100%) | 5 (5=80-100%) | 1 (1=0-19%) |  | 4 (4=60-79%) | 5 (5=80-100%) | 5 (5=80-100%) | 5 (5=80-100%) | 4 (4=60-79%) | 5 (5=80-100%) |
